Patent US20220146526A1, “METHOD FOR EVALUATING SAMPLE, ANALYSIS METHOD, METHOD FOR DETECTING DEGRADED SAMPLE, MARKER FOR DETECTING DEGRADED BLOOD PLASMA SAMPLE, AND MARKER FOR DETECTING DEGRADED SERUM SAMPLE” (SHIMADZU CORPORATION, priority 2019, published 2022)
Each block holds one compound with its values, some of them ahead of it.

Legend:
Type in all cases: physicochemical, human
[1] = GC/MS of blood plasma sample: time from blood collection to centrifugation (Table A); conditions: for Rate of increase or decrease: detection intensity relative to 1 at 15 minutes, after 12 hours; for Rate of increase or decrease / Increase or decrease: blood collection to centrifugation; for Increase or decrease: detection intensity
Procedure: (§1) At room temperature, 5 mL of blood from a healthy subject was taken into a blood-collecting vessel containing EDTA, and the blood-collecting vessel was inverted for mixing, then cooled, and allowed to stand at 4° C. Here, in order to investigate how the detection intensity of molecules contained in the sample was affected in a case where the time to cooling was set to 5 minutes or more as compared to that in a case where the time to cooling was set to 1 minute or less, preparations were performed under both the former condition and the latter condition. After standing, the blood sample was subjected to centrifugation under a condition of 4° C., 3000 rpm, and 15 minutes. […] After centrifugation, the blood-collecting vessel was left to stand at room temperature for 30 minutes, and the blood plasma was isolated during this 30 minutes. The obtained blood plasma sample was frozen and stored. Here, in order to investigate how the detection intensity of molecules contained in the sample was affected in cases where freezing and thawing was performed 4 times, 6 times, and 10 times after freezing as compared to that in a case where freezing and thawing was performed 2 times after freezing, freezing and thawing was performed under the respective conditions of 2, 4, 6, and 10 times.
(§2) Frozen blood plasma samples and serum samples were subjected to GC/MS or LC/MS. In GC/MS, the blood plasma samples and serum samples were subjected to methoxymation and trimethylsilylation and then introduced to GC-MS.
(§3) GC/MS was conducted using GCMS·TQ8040 (Shimadzu Corporation) that was a GC·MS equipped with AOC·20i (Shimadzu Corporation) as an autosampler.
(§4) Column: BPX5 (inner diameter of 0.25 mm, length of 30 m, and film thickness of 0.25 μm) (SGE)
(§5) Column temperature: maintained at 60° C. for 2 minutes, then raised at 15° C./min, and maintained at 330° C. for 3 minutes.
(§6) Inlet temperature: 250° C.
(§7) Carrier gas control mode: constant linear velocity of 39.0 cm/sec
(§8) Sample introduction method: split (split ratio of 30:1) Injection volume: 1 μL
(§9) Ionization method: electron ionization
(§10) Ionization current: 60 μA
(§11) Interface temperature: 280° C.
(§12) Ion source temperature: 200° C.
(§13) Mode: multiple reaction monitoring (MRM)
The rate of increase or decrease in Table A is the value of detection intensity relative to 1 that is the detection intensity in a case where the time from blood collection to centrifugation is set to 15 minutes.

[2] = GC/MS of serum sample: time from blood collection to centrifugation (Table G); conditions: blood collection to centrifugation; for Rate of increase or decrease: detection intensity relative to 1 at 15 minutes; for Increase or decrease: detection intensity
Procedure: (§14) After standing, the blood sample was subjected to centrifugation under a condition of room temperature, 3500 rpm, and 5 minutes. […] After centrifugation, the blood-collecting vessel was left to stand at room temperature, and the serum was isolated during this time. Here, in order to investigate how the detection intensity of molecules contained in the sample was affected in cases where the time during which the blood-collecting vessel was left at room temperature was set to 1 hour and 6 hours as compared to that in a case where the time was set to 30 minutes, preparations were performed under the respective conditions of 30 minutes, 1 hour, and 6 hours. The obtained serum sample was frozen and stored. Here, in order to investigate how the detection intensity of molecules contained in the sample was affected in cases where freezing and thawing was performed 4 times, 6 times, and 10 times after freezing as compared to that in a case where freezing and thawing was performed 2 times after freezing, freezing and thawing was performed under the respective conditions of 2, 4, 6, and 10 times.
as §2, §3, §4, §5, §6, §7, §8, §9, §10, §11, §12, §13
The rate of increase or decrease in Table G is the value of detection intensity relative to 1 that is the detection intensity in a case where the time from blood collection to centrifugation is set to 15 minutes.

[3] = GC/MS of blood plasma sample: number of times of freezing and thawing (Table C); conditions: for Rate of increase or decrease: detection intensity relative to 1 at 2 times; for Increase or decrease: detection intensity
Procedure: as §1, §2, §3, §4, §5, §6, §7, §8, §9, §10, §11, §12, §13
The rate of increase or decrease in Table C is the value of detection intensity relative to 1 that is the detection intensity in a case where the number of times of freezing and thawing is set to 2 times.

[4] = GC/MS of serum sample: number of times of freezing and thawing (Table I); set-up: key to Rate of increase or decrease / Rate of increase or decrease (first value, increase): detection intensity relative to 2 freeze-thaw cycles = 1; conditions: for Rate of increase or decrease: 10 times of freezing and thawing, detection intensity relative to 1 at 2 times; for Number of times when compound is affected / Increase or decrease: serum sample, GC/MS; for Number of times when compound is affected: detection intensity changed by 30% or more vs 2 times of freezing and thawing; for Increase or decrease: detection intensity vs 2 times of freezing and thawing
Procedure: as §14, §2, §3, §4, §5, §6, §7, §8, §9, §10, §11, §12, §13
The rate of increase or decrease in Table I is the value of detection intensity relative to 1 that is the detection intensity in a case where the number of times of freezing and thawing is set to 2 times.

[5] = LC/MS of blood plasma sample: time from blood collection to centrifugation (Table D)
Procedure: as §1, §2
(§15) Analysis column: Discovery HS F5-3 (inner diameter of 2.1 mm, length of 150 mm, film thickness of 3 μm) (Sigma-Aldrich)
(§16) Column temperature: 40° C.
(§17) (A) 0.1% formic acid (dissolved in water)
(§18) (B) 0.1% formic acid (dissolved in acetonitrile)
(§19) Flow velocity: 0.25 mL/min
(§20) Ionization method: electrospray
(§21) Temperature: • Desolvation Line (DL) temperature: 250° C. • Heat block temperature: 400° C. • Interface temperature: 300° C.
(§22) Gas flow rate: • Nebulizer gas flow rate: 3.0 L/min • Drying gas flow rate: 10.0 L/min • Heating gas flow rate: 10.0 L/min
as §13
The rate of increase or decrease in Table D is the value of detection intensity relative to 1 that is the detection intensity in a case where the time from blood collection to centrifugation is set to 15 minutes.

[6] = LC/MS of serum sample: number of times of freezing and thawing (Table M); set-up: key to Rate of increase or decrease: detection intensity relative to 1 at 2 freeze-thaw cycles
Procedure: as §14, §2, §15, §16, §17, §18, §19, §20, §21, §22, §13
The rate of increase or decrease in Table M is the value of detection intensity relative to 1 that is the detection intensity in a case where the number of times of freezing and thawing is set to 2 times.

Rate of increase or decrease [1]: 1.34 | Increase or decrease ([1]; after 12 hours vs 15 minutes): Increase
Compound: CCCCC/C=C\C/C=C\CCCCCCCC(=O)O [Linoleic acid]

Rate of increase or decrease ([2]; after 8 hours): 1.30 | Increase or decrease ([2]; after 8 hours vs 15 minutes): Decrease | Rate of increase or decrease [1]: 1.55 | Increase or decrease ([1]; after 12 hours vs 15 minutes): Increase
Compound: CCCCCCCCCCCCCC(=O)O [Myristic acid]

Rate of increase or decrease [1]: 4.05 | Increase or decrease ([1]; after 12 hours vs 15 minutes): Increase
Compound: CCCCCCCC/C=C\CCCCCCCC(=O)O [Oleic acid]

Rate of increase or decrease [1]: 4.05 | Increase or decrease ([1]; after 12 hours vs 15 minutes): Increase
Compound: CCCCCCCCCCCCCCCC(=O)O [Palmitic acid]

Rate of increase or decrease ([2]; after 8 hours): 0.66 | Increase or decrease ([2]; after 8 hours vs 15 minutes): Decrease | Rate of increase or decrease ([3]; freezing and thawing 6 times): 0.68 | Increase or decrease ([3]; freezing and thawing 6 times vs 2 times): Decrease
Compound: O[C@H]1[C@H](O)[C@@H](O)[C@H](O)[C@@H](O)[C@@H]1O [Scyllo-inositol]

Compound: O=C(CO)[C@H](O)[C@@H](O)[C@H](O)CO [Sorbose]
Rate of increase or decrease ([2]; after 4 hours): 1.53 | Increase or decrease ([2]; after 4 hours vs 15 minutes): Increase | Rate of increase or decrease [4]: 0.68 | Number of times when compound is affected [4]: 10 times | Increase or decrease [4]: Decrease | Increase or decrease ([1]; after 4 hours vs 15 minutes): Different from individual | Rate of increase or decrease (second value, decrease) ([1]; different from individual to individual, individuals with decrease, relative to 1 at 15 minutes, collection to centrifugation, after 4 hours): 0.67 | Rate of increase or decrease (first value, increase) ([1]; different from individual to individual, individuals with increase, relative to 1 at 15 minutes, collection to centrifugation, after 4 hours): 2.10

Rate of increase or decrease [4]: 1.33 | Number of times when compound is affected [4]: 10 times | Increase or decrease [4]: Increase | Rate of increase or decrease [1]: 2.13 | Increase or decrease ([1]; after 12 hours vs 15 minutes): Increase
Compound: CCCCCCCCCCCCCCCCCC(=O)O [Stearic acid]

Compound: NCCc1c[nH]c2ccccc12 [Tryptamine]
Rate of increase or decrease ([3]; freezing and thawing 10 times): 0.69 | Increase or decrease ([3]; freezing and thawing 10 times vs 2 times): Decrease

Compound: N[C@@H](Cc1c[nH]c2ccccc12)C(=O)O [Tryptophan]
Increase or decrease ([5]; detection intensity, blood collection to centrifugation, after 12 hours vs 15 minutes): Different from individual | Rate of increase or decrease (second value, decrease) ([5]; different from individual to individual, individuals with decrease, relative to 1 at 15 minutes, collection to centrifugation, after 12 hours): 0.66 | Rate of increase or decrease (first value, increase) ([5]; different from individual to individual, individuals with increase, relative to 1 at 15 minutes, collection to centrifugation, after 12 hours): 1.62 | Rate of increase or decrease ([6]; 6 times of freezing and thawing, detection intensity relative to 1 at 2 times): 0.66 | Number of times when compound is affected ([6]; serum sample, LC/MS, detection intensity changed by 30% or more vs 2 times of freezing and thawing): 6 times | Increase or decrease ([6]; serum sample, LC/MS, detection intensity vs 2 times of freezing and thawing): Decrease
